Data taken from patent publication US20220146526A1, “METHOD FOR EVALUATING SAMPLE, ANALYSIS METHOD, METHOD FOR DETECTING DEGRADED SAMPLE, MARKER FOR DETECTING DEGRADED BLOOD PLASMA SAMPLE, AND MARKER FOR DETECTING DEGRADED SERUM SAMPLE” (SHIMADZU CORPORATION, priority 2019, published 2022).
Blank lines part the entries; values can stand above or below the molecule they belong to.

Legend:
Assay type in all cases: physicochemical, human
[1] = GC/MS of serum sample: time from centrifugation to isolation (Table H); design: key to Rate of increase or decrease / Rate of increase or decrease (first value, increase): detection intensity relative to 1 at 30 min centrifugation-to-isolation
Method in brief: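 Blood was centrifuged at room temperature, 3500 rpm, 5 min, and the vessel left at room temperature for 30 min, 1 h or 6 h before serum isolation. Serum was methoxymated, trimethylsilylated and analysed by GC/MS with electron ionization in MRM mode; intensities expressed relative to the 30-min condition (=1).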

[2] = GC/MS of blood plasma sample: number of times of freezing and thawing (Table C); conditions: for Rate of increase or decrease: detection intensity relative to 1 at 2 times; for Increase or decrease: detection intensity
Procedure: (§1) At room temperature, 5 mL of blood from a healthy subject was taken into a blood-collecting vessel containing EDTA, and the blood-collecting vessel was inverted for mixing, then cooled, and allowed to stand at 4° C. Here, in order to investigate how the detection intensity of molecules contained in the sample was affected in a case where the time to cooling was set to 5 minutes or more as compared to that in a case where the time to cooling was set to 1 minute or less, preparations were performed under both the former condition and the latter condition. After standing, the blood sample was subjected to centrifugation under a condition of 4° C., 3000 rpm, and 15 minutes. […] After centrifugation, the blood-collecting vessel was left to stand at room temperature for 30 minutes, and the blood plasma was isolated during this 30 minutes. The obtained blood plasma sample was frozen and stored. Here, in order to investigate how the detection intensity of molecules contained in the sample was affected in cases where freezing and thawing was performed 4 times, 6 times, and 10 times after freezing as compared to that in a case where freezing and thawing was performed 2 times after freezing, freezing and thawing was performed under the respective conditions of 2, 4, 6, and 10 times.
(§2) Frozen blood plasma samples and serum samples were subjected to GC/MS or LC/MS. In GC/MS, the blood plasma samples and serum samples were subjected to methoxymation and trimethylsilylation and then introduced to GC-MS.
(§3) GC/MS was conducted using GCMS·TQ8040 (Shimadzu Corporation) that was a GC·MS equipped with AOC·20i (Shimadzu Corporation) as an autosampler.
(§4) Column: BPX5 (inner diameter of 0.25 mm, length of 30 m, and film thickness of 0.25 μm) (SGE)
(§5) Column temperature: maintained at 60° C. for 2 minutes, then raised at 15° C./min, and maintained at 330° C. for 3 minutes.
(§6) Inlet temperature: 250° C.
(§7) Carrier gas control mode: constant linear velocity of 39.0 cm/sec
(§8) Sample introduction method: split (split ratio of 30:1) Injection volume: 1 μL
(§9) Ionization method: electron ionization
(§10) Ionization current: 60 μA
(§11) Interface temperature: 280° C.
(§12) Ion source temperature: 200° C.
(§13) Mode: multiple reaction monitoring (MRM)
The rate of increase or decrease in Table C is the value of detection intensity relative to 1 that is the detection intensity in a case where the number of times of freezing and thawing is set to 2 times.

[3] = GC/MS of serum sample: number of times of freezing and thawing (Table I); design: key to Rate of increase or decrease / Rate of increase or decrease (first value, increase): detection intensity relative to 2 freeze-thaw cycles = 1; conditions: serum, GC/MS
Method in brief: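 Serum was isolated after centrifugation at room temperature (3500 rpm, 5 min), frozen, and put through 2, 4, 6 or 10 freeze–thaw cycles. Samples were methoxymated and trimethylsilylated, then run by electron-ionization GC/MS in MRM mode on a BPX5 column (60 to 330 °C). Detection intensity is given relative to the 2-cycle sample, set as 1.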

[4] = GC/MS of serum sample: time from blood collection to centrifugation (Table G); conditions: blood collection to centrifugation; for Rate of increase or decrease: detection intensity relative to 1 at 15 minutes; for Increase or decrease: detection intensity
Method in brief: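 Blood was held for varying times before centrifugation (room temperature, 3500 rpm, 5 min); serum was frozen, then methoxymated and trimethylsilylated for GC/MS with electron ionization in MRM mode. Values are detection intensities relative to the 15-minute collection-to-centrifugation condition, set as 1.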

[5] = GC/MS of blood plasma sample: time from blood collection to centrifugation (Table A); conditions: blood collection to centrifugation; for Rate of increase or decrease: detection intensity relative to 1 at 15 minutes, after 4 hours; for Increase or decrease: detection intensity, after 4 hours vs 15 minutes
Procedure: as §1, §2, §3, §4, §5, §6, §7, §8, §9, §10, §11, §12, §13
The rate of increase or decrease in Table A is the value of detection intensity relative to 1 that is the detection intensity in a case where the time from blood collection to centrifugation is set to 15 minutes.

[6] = LC/MS of blood plasma sample: number of times of freezing and thawing (Table F); conditions: for Rate of increase or decrease: detection intensity relative to 1 at 2 times; for Increase or decrease: detection intensity
Procedure: as §1, §2
(§14) Analysis column: Discovery HS F5-3 (inner diameter of 2.1 mm, length of 150 mm, film thickness of 3 μm) (Sigma-Aldrich)
(§15) Column temperature: 40° C.
(§16) (A) 0.1% formic acid (dissolved in water)
(§17) (B) 0.1% formic acid (dissolved in acetonitrile)
(§18) Flow velocity: 0.25 mL/min
(§19) Ionization method: electrospray
(§20) Temperature: • Desolvation Line (DL) temperature: 250° C. • Heat block temperature: 400° C. • Interface temperature: 300° C.
(§21) Gas flow rate: • Nebulizer gas flow rate: 3.0 L/min • Drying gas flow rate: 10.0 L/min • Heating gas flow rate: 10.0 L/min
as §13
The rate of increase or decrease in Table F is the value of detection intensity relative to 1 that is the detection intensity in a case where the number of times of freezing and thawing is set to 2 times.

[7] = LC/MS of blood plasma sample: time from blood collection to centrifugation (Table D); conditions: blood collection to centrifugation
Procedure: as §1, §2, §14, §15, §16, §17, §18, §19, §20, §21, §13
The rate of increase or decrease in Table D is the value of detection intensity relative to 1 that is the detection intensity in a case where the time from blood collection to centrifugation is set to 15 minutes.

[8] = LC/MS of serum sample: number of times of freezing and thawing (Table M); design: key to Rate of increase or decrease: detection intensity relative to 1 at 2 freeze-thaw cycles
Procedure: After standing, the blood sample was subjected to centrifugation under a condition of room temperature, 3500 rpm, and 5 minutes. […] After centrifugation, the blood-collecting vessel was left to stand at room temperature, and the serum was isolated during this time. Here, in order to investigate how the detection intensity of molecules contained in the sample was affected in cases where the time during which the blood-collecting vessel was left at room temperature was set to 1 hour and 6 hours as compared to that in a case where the time was set to 30 minutes, preparations were performed under the respective conditions of 30 minutes, 1 hour, and 6 hours. The obtained serum sample was frozen and stored. Here, in order to investigate how the detection intensity of molecules contained in the sample was affected in cases where freezing and thawing was performed 4 times, 6 times, and 10 times after freezing as compared to that in a case where freezing and thawing was performed 2 times after freezing, freezing and thawing was performed under the respective conditions of 2, 4, 6, and 10 times.
as §2, §14, §15, §16, §17, §18, §19, §20, §21, §13
The rate of increase or decrease in Table M is the value of detection intensity relative to 1 that is the detection intensity in a case where the number of times of freezing and thawing is set to 2 times.

[9] = freezing and thawing 10 times vs 2 times
[10] = freezing and thawing 4 times vs 2 times

Rate of increase or decrease ([1]; detection intensity relative to 1 at 30 minutes, after 1 hour): 1.36
Increase or decrease ([1]; detection intensity, after 1 hour vs 30 minutes): Increase
Rate of increase or decrease ([2]; freezing and thawing 10 times): 1.88
Increase or decrease [2, 9]: Increase
Increase or decrease ([3]; detection intensity, freezing and thawing 10 times vs 2 times): Different from individual
Rate of increase or decrease (second value, decrease) ([3]; different from individual to individual, individuals with decrease, relative to 1 at 2 times, freezing and thawing 10 times): 0.70
Rate of increase or decrease (first value, increase) ([3]; different from individual to individual, individuals with increase, relative to 1 at 2 times, freezing and thawing 10 times): 1.34
Rate of increase or decrease ([4]; after 12 hours): 1.38
Increase or decrease ([4]; after 12 hours vs 15 minutes): Increase
Rate of increase or decrease [5]: 0.60
Increase or decrease [5]: Decrease
Structure (SMILES): CCCCCCCCCCCCCCCCO [1-Hexadecanol (cetanol), 1-Hexadecanol]

Rate of increase or decrease ([2]; freezing and thawing 4 times): 1.41
Increase or decrease [2, 10]: Increase
Rate of increase or decrease ([4]; after 4 hours): 0.62
Increase or decrease ([4]; after 4 hours vs 15 minutes): Decrease
Rate of increase or decrease [5]: 1.77
Increase or decrease [5]: Increase
Structure (SMILES): O=C1O[C@H]([C@@H](O)CO)C(O)=C1O [Ascorbic acid]

Rate of increase or decrease ([6]; freezing and thawing 4 times): 1.52
Increase or decrease [6, 10]: Increase
Rate of increase or decrease ([7]; detection intensity relative to 1 at 15 minutes, after 12 hours): 1.44
Increase or decrease ([7]; detection intensity, after 12 hours vs 15 minutes): Increase
Structure (SMILES): N[C@@H](CCSC[C@H](N)C(=O)O)C(=O)O [Cystathionine]

Increase or decrease ([2]; freezing and thawing 6 times vs 2 times): Different from individual
Rate of increase or decrease (second value, decrease) ([2]; different from individual to individual, individuals with decrease, relative to 1 at 2 times, freezing and thawing 6 times): 0.62
Rate of increase or decrease (first value, increase) ([2]; different from individual to individual, individuals with increase, relative to 1 at 2 times, freezing and thawing 6 times): 1.93
Rate of increase or decrease [5]: 1.50
Increase or decrease [5]: Increase
Structure (SMILES): Nc1cc[nH]c(=O)n1 [Cytosine]

Rate of increase or decrease ([6]; freezing and thawing 10 times): 1.34
Increase or decrease [6, 9]: Increase
Structure (SMILES): NC(=O)CC[C@H](N)C(=O)O [Glutamine]

Rate of increase or decrease ([6]; freezing and thawing 10 times): 1.37
Increase or decrease [6, 9]: Increase
Rate of increase or decrease ([8]; 6 times of freezing and thawing, detection intensity relative to 1 at 2 times): 1.30
Number of times when compound is affected ([8]; serum sample, LC/MS, detection intensity changed by 30% or more vs 2 times of freezing and thawing): 6 times
Increase or decrease ([8]; serum sample, LC/MS, detection intensity vs 2 times of freezing and thawing): Decrease
Structure (SMILES): N[C@@H](CCS)C(=O)O [Homocysteine]
